Reference: patent publication US10167262B2, “Herbicidal substituted 3-arylpyrazoles” (FMC CORPORATION, priority 2014, dated 2019)

How the values were obtained:
Format in all cases: in vivo
[1] = tested on: sedge, umbrella (small-flower umbrella sedge, Cyperus difformis); test: Test B flooded paddy test, plant response rating 0-100; conditions: Flood, 250 g ai/ha; scale 0 to 100 (0 no effect, 100 complete control); 13 to 15 days
How it was run: (§1)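 In-water treatment: compound dosed into 3 cm flood over soil, water level unchanged throughout. Controls run alongside; visual assessment at day 13–15.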

[2] = tested on: barnyardgrass (Echinochloa crus-galli); test: as above; conditions: Flood, 250 g ai/ha; scale 0 to 100 (0 no effect, 100 complete control); 13 to 15 days
How it was run: as §1

[3] = tested on: rice (Oryza sativa); test: as above; conditions: Flood, 250 g ai/ha; scale 0 to 100 (0 no effect, 100 complete control); 13 to 15 days
How it was run: as §1

[4] = tested on: ducksalad (Heteranthera limosa); test: as above; conditions: Flood, 250 g ai/ha; scale 0 to 100 (0 no effect, 100 complete control); 13 to 15 days
How it was run: as §1

[5] = tested on: barnyardgrass (Echinochloa crus-galli); test: Test C pre-/postemergence greenhouse test, plant response rating 0-100
How it was run: (§2)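 Scores run from 0, no effect, to 100, complete control, assigned by eye after treated plants and controls spent 13 to 15 days in a greenhouse. Soil-applied treatment went onto freshly sown seed in loam and sand; foliar treatment hit seedlings at the 1- to 4-leaf stage.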

[6] = tested on: oilseed rape (Brassica napus); test: as above
How it was run: as §2

[7] = tested on: waterhemp (common waterhemp, Amaranthus rudis); test: as above
How it was run: as §2

[8] = tested on: waterhemp_RES2, (ALS & HPPD resistant common waterhemp, Amaranthus rudis); test: Test E postemergence greenhouse test, plant response rating 0-100; conditions: scale 0 to 100
Method: At the same time, plants from these crop and weed species and also waterhemp_RES1, (ALS & Triazine resistant common waterhemp, Amaranthus rudis), and waterhemp_RES2, (ALS & HPPD resistant common waterhemp, Amaranthus rudis) were planted in pots containing Redi-Earth® planting medium (Scotts Company, 14111 Scottslawn Road, Marysville, Ohio 43041) comprising spaghnum peat moss, vermiculite, wetting agent and starter nutrients were treated with postemergence applications of test chemicals formulated in the same manner. Plants ranged in height from 2 to 18 cm for postemergence treatments (1- to 4-leaf stage).
Treated plants and controls were maintained in a greenhouse for 14 to 21 days, after which time all species were compared to controls and visually evaluated. Plant response ratings, summarized in Table E, are based on a scale of 0 to 100 where 0 is no effect and 100 is complete control. A dash (-) response means no test result.

[9] = tested on: woolly cupgrass (Eriochloa villosa); test: Test C postemergence greenhouse test, plant response rating 0-100
How it was run: (§3)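 Postemergence spray onto 1–4-leaf potted seedlings, greenhouse incubation 13–15 days. Visual percent-control rating (0–100) against untreated plants.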

[10] = tested on: downy bromegrass (Bromus tectorum); test: as above
How it was run: as §3

[11] = tested on: windgrass (Apera spica-venti); test: as above
How it was run: as §3

[12] = tested on: winter barley (Hordeum vulgare); test: as above
How it was run: as §3

[13] = tested on: deadnettle (henbit deadnettle, Lamium amplexicaule); test: as above
How it was run: as §3

[14] = tested on: canarygrass (Phalaris minor); test: as above
How it was run: as §3

[15] = tested on: cocklebur (common cocklebur, Xanthium strumarium); test: as above
How it was run: as §3

[16] = tested on: surinam grass (Brachiaria decumbens); test: as above
How it was run: as §3

[17] = tested on: green foxtail (Setaria viridis); test: as above
How it was run: as §3

[18] = Postemergence, 250 g ai/ha, scale 0 to 100
[19] = Postemergence, 500 g ai/ha, scale 0 to 100

CCOC(OCC)(c1cccs1)c1c[nH]nc1-c1cc(Cl)cc(Cl)c1 [Compound 27]
Plant response rating, Sedge, Umbrella [1]: 0
Plant response rating, Barnyardgrass [2]: 0
Plant response rating, Rice [3]: 0
Plant response rating, Ducksalad [4]: 0
Plant response rating (0 to 100), Barnyardgrass ([5]; Postemergence, 62 g ai/ha): 0
Plant response rating, Barnyardgrass ([5]; Postemergence, 125 g ai/ha, scale 0 to 100): 0
Plant response rating, Barnyardgrass [5, 18]: 0
Plant response rating, Barnyardgrass [5, 19]: 10
Plant response rating, Barnyardgrass ([5]; Preemergence, 62 g ai/ha): 0
Plant response rating, Barnyardgrass ([5]; Preemergence, 125 g ai/ha): 0
Plant response rating, Barnyardgrass ([5]; Preemergence, 250 g ai/ha): 0
Plant response rating, Barnyardgrass ([5]; Preemergence, 500 g ai/ha): 0
Plant response rating (0 to 100), Oilseed Rape ([6]; Postemergence, 62 g ai/ha): 45
Plant response rating (0 to 100), Oilseed Rape ([6]; Postemergence, 125 g ai/ha): 50
Plant response rating, Oilseed Rape [6, 18]: 50
Plant response rating, Oilseed Rape [6, 19]: 45
Plant response rating, Oilseed Rape ([6]; Preemergence, 62 g ai/ha): 70
Plant response rating, Oilseed Rape ([6]; Preemergence, 125 g ai/ha): 90
Plant response rating, Oilseed Rape ([6]; Preemergence, 250 g ai/ha): 85
Plant response rating, Oilseed Rape ([6]; Preemergence, 500 g ai/ha): 90
Plant response rating (0 to 100), Waterhemp ([7]; Postemergence, 62 g ai/ha): 95
Plant response rating (0 to 100), Waterhemp ([7]; Postemergence, 125 g ai/ha): 98
Plant response rating, Waterhemp [7, 18]: 98
Plant response rating, Waterhemp [7, 19]: 100
Plant response rating, Waterhemp ([7]; Preemergence, 62 g ai/ha): 100
Plant response rating, Waterhemp ([7]; Preemergence, 125 g ai/ha): 100
Plant response rating, Waterhemp ([7]; Preemergence, 250 g ai/ha): 100
Plant response rating, Waterhemp ([7]; Preemergence, 500 g ai/ha): 100

Cn1cc(C(=O)c2ccccc2)c(-c2cc(Cl)cc(Cl)c2)n1 [Compound 54, [3-(3,5-dichlorophenyl)-1-methyl-1H-pyrazol-4-yl]phenylmethanone]
Plant response rating, Barnyardgrass ([5]; Preemergence, 62 g ai/ha): 0
Plant response rating, Barnyardgrass ([5]; Preemergence, 125 g ai/ha): 0
Plant response rating, Barnyardgrass ([5]; Preemergence, 250 g ai/ha): 0
Plant response rating, Barnyardgrass ([5]; Preemergence, 500 g ai/ha): 0
Plant response rating, Oilseed Rape ([6]; Preemergence, 62 g ai/ha): 0
Plant response rating, Oilseed Rape ([6]; Preemergence, 125 g ai/ha): 0
Plant response rating, Oilseed Rape ([6]; Preemergence, 250 g ai/ha): 0
Plant response rating, Oilseed Rape ([6]; Preemergence, 500 g ai/ha): 5
Plant response rating, Waterhemp ([7]; Preemergence, 62 g ai/ha): 90
Plant response rating, Waterhemp ([7]; Preemergence, 125 g ai/ha): 95
Plant response rating, Waterhemp ([7]; Preemergence, 250 g ai/ha): 98
Plant response rating, Waterhemp ([7]; Preemergence, 500 g ai/ha): 100
Plant response rating, Waterhemp_RES2 ([8]; 62 g ai/ha): 80
Plant response rating, Waterhemp_RES2 ([8]; 125 g ai/ha): 85
Plant response rating, Waterhemp_RES2 ([8]; 250 g ai/ha): 85
Plant response rating (0 to 100), Cupgrass, Woolly ([9]; 31 g ai/ha): 0
Plant response rating (0 to 100), Cupgrass, Woolly ([9]; 62 g ai/ha): 0
Plant response rating (0 to 100), Cupgrass, Woolly ([9]; 125 g ai/ha): 0
Plant response rating, Cupgrass, Woolly ([9]; 250 g ai/ha, scale 0 to 100): 0
Plant response rating (0 to 100), Bromegrass, Downy ([10]; 31 g ai/ha): 0
Plant response rating (0 to 100), Bromegrass, Downy ([10]; 62 g ai/ha): 0
Plant response rating (0 to 100), Bromegrass, Downy ([10]; 125 g ai/ha): 0
Plant response rating, Bromegrass, Downy ([10]; 250 g ai/ha, scale 0 to 100): 0
Plant response rating (0 to 100), Windgrass ([11]; 62 g ai/ha): 0
Plant response rating (0 to 100), Windgrass ([11]; 125 g ai/ha): 0
Plant response rating, Windgrass ([11]; 250 g ai/ha, scale 0 to 100): 0
Plant response rating (0 to 100), Barley ([12]; 31 g ai/ha): 0
Plant response rating (0 to 100), Barley ([12]; 62 g ai/ha): 0
Plant response rating (0 to 100), Barley ([12]; 125 g ai/ha): 0
Plant response rating, Barley ([12]; 250 g ai/ha, scale 0 to 100): 0
Plant response rating (0 to 100), Deadnettle ([13]; 31 g ai/ha): 0
Plant response rating (0 to 100), Deadnettle ([13]; 62 g ai/ha): 0
Plant response rating (0 to 100), Deadnettle ([13]; 125 g ai/ha): 0
Plant response rating, Deadnettle ([13]; 250 g ai/ha, scale 0 to 100): 5
Plant response rating (0 to 100), Canarygrass ([14]; 31 g ai/ha): 0
Plant response rating (0 to 100), Canarygrass ([14]; 62 g ai/ha): 0
Plant response rating (0 to 100), Canarygrass ([14]; 125 g ai/ha): 0
Plant response rating, Canarygrass ([14]; 250 g ai/ha, scale 0 to 100): 0
Plant response rating (0 to 100), Cocklebur ([15]; 31 g ai/ha): 0
Plant response rating (0 to 100), Cocklebur ([15]; 62 g ai/ha): 0
Plant response rating (0 to 100), Cocklebur ([15]; 125 g ai/ha): 0
Plant response rating, Cocklebur ([15]; 250 g ai/ha, scale 0 to 100): 0
Plant response rating (0 to 100), Surinam Grass ([16]; 62 g ai/ha): 0
Plant response rating (0 to 100), Surinam Grass ([16]; 125 g ai/ha): 0
Plant response rating, Surinam Grass ([16]; 250 g ai/ha, scale 0 to 100): 0
Plant response rating (0 to 100), Foxtail, Green ([17]; 31 g ai/ha): 0
Plant response rating (0 to 100), Foxtail, Green ([17]; 62 g ai/ha): 0
Plant response rating (0 to 100), Foxtail, Green ([17]; 125 g ai/ha): 0
Plant response rating, Foxtail, Green ([17]; 250 g ai/ha, scale 0 to 100): 0
